Laboratory results reported in patent publication US20190212340A1, “AN ELISA-LIKE ASSAY FOR QUANTIFYING ENZYMATIC ACTIVITIES OF MONO-ADP-RIBOSYLTRANSFERASES” (University of Southern California, priority 2016, published 2019).

What was measured:
[1] = biological target: T1, PARP15 (Homo sapiens, UniProt Q460N3); experiment: MLISA inhibition of PARP15-catalyzed automodification (Experiment No. 2); assay type: biochemical; settings: at concentrations up to 100 μM
T1 construct: The catalytic domains of PARP15 (residue 481-678); His6 (N); Factor Xa cleavage site (IEGR) (N); made in house; host or cells: E. coli BL21 (DE3)
T1 sequence (Q460N3 with tags, fused parts or gaps): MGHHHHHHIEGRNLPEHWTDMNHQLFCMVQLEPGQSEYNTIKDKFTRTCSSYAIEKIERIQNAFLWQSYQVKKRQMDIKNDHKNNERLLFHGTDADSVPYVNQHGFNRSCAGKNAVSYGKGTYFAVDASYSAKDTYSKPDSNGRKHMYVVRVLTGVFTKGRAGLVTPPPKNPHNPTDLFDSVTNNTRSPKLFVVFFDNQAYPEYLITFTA

[2] = biological target: T2, PARP15 (Homo sapiens, UniProt Q460N3); settings: Karlberg et al., J. Biol. Chem. 2015; read-out: Km value of PARP15 reported previously; cited from earlier work
T2 sequence (Q460N3 1-678): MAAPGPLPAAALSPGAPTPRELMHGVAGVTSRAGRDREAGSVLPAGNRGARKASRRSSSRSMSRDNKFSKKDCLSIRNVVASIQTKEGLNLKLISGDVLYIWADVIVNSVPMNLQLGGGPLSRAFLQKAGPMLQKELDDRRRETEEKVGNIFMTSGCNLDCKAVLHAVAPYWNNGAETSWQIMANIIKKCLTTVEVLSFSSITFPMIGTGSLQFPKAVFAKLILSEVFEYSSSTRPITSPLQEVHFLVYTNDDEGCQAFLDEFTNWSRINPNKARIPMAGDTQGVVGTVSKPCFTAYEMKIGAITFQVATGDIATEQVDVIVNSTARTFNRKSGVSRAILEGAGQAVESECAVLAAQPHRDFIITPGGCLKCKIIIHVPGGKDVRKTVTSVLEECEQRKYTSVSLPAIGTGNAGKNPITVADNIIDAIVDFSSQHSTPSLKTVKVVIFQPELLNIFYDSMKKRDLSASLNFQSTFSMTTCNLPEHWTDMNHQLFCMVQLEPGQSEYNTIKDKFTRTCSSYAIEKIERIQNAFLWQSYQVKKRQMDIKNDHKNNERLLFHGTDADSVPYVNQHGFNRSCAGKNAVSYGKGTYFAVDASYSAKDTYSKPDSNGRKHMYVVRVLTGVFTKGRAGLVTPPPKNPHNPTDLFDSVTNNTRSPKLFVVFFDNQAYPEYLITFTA

[3] = biological target: T1, PARP15; experiment: M2-based ELISA plate inhibition assay, PARP15 (Experiment No. 1); assay type: biochemical; settings: 500 nM PARP15, 500 μM NAD+, inhibitors at 1, 10 and 100 μM, 2 h
Protocol: The general scheme of ELISA assay is illustrated in FIG. 1. PARP automodification reactions (100 μL) were conducted in 96-wells plate together with the coating process for 2 hours at room temperature. After five times of 200 μL PBST washes (0.1% v/v Tween 20 in PBS buffer, pH 7.4) per well the plates were blocked with 3% BSA dissolved in PBS buffer for 2 hours under room temperature followed by five washes of 200 μL PBST per well. The plates were incubated for 1 hour upon addition of 100 μL of 0.1 μM Macrodomain 2 and then washed five times with 200 μL PBST per well. […] The fluorescence signal was developed by addition of 75 μL QuantaBlu Fluorogenic Peroxidase Substrate and recorded by Synergy H1 Multi-Mode Reader (BioTek, VT). Kinetic parameters were calculated using nonlinear regression Michaelis-Menten model using GraphPad Prism (GraphPad Software). […]
96-well ELISA plates were coated with reactions in triplicates consisting of PARP enzymes (PARP14: 1 μM; PARP15: 500 nM) with various inhibitors at different concentrations (1, 10 and 100 μM) in addition to 500 μM of NAD^+ in Reaction Buffer (50 mM Tris-HCl, pH 7.4, 2 mM dTT). […] To control for any potential inhibition activity related to DMSO, wells containing 1% DMSO were analyzed in triplicates alongside with no inhibitor control wells and 100 μM control inhibitor wells.

SMILES | inhibition effects on PARP15 activity [1] | other results
Nc1ncnc2[nH]cnc12 [Adenine] | no significant inhibition effects | 
CN(C)c1ccc(O)c2c1C[C@H]1C[C@H]3[C@H](N(C)C)C(O)=C(C(N)=O)C(=O)[C@@]3(O)C(O)=C1C2=O [Minocin] | no significant inhibition effects | 
NC(=O)c1ccc[n+]([C@@H]2O[C@H](COP(=O)([O-])OP(=O)(O)OC[C@H]3O[C@@H](n4cnc5c(N)ncnc54)[C@H](O)[C@@H]3O)[C@@H](O)[C@H]2O)c1 [NAD^+, Nicotinamide adenine dinucleotide] |  | Km [2]: 5.8 ± 1.9 µM
O=C(c1cc(Cc2n[nH]c(=O)c3ccccc23)ccc1F)N1CCN(C(=O)C2CC2)CC1 [Olaparib] |  | inhibition of PARP15 (fluorescence intensity) [3]: better inhibitory effect at 100 μM but it is less potent comparing to other inhibitor
O=c1[nH]c(-c2ccc(C(F)(F)F)cc2)nc2c1CSCC2 [XAV939] | no significant inhibition effects | 
